PubChem BioAssay AID2346 (The Scripps Research Institute Molecular Screening Center, 2010)
pIC50: −log10 of the molar value.

biological target: Sphingosine 1-phosphate receptor 4 (Homo sapiens) (UniProt O95977); test: S1P4 receptor antagonists, human, late-stage follow-up, cell-based, fluorescence, synthesized analogues (AID 2346); settings: S1P4-expressing cells, antagonist fluorescence read-out
Sequence (O95977 whole entry, looked up): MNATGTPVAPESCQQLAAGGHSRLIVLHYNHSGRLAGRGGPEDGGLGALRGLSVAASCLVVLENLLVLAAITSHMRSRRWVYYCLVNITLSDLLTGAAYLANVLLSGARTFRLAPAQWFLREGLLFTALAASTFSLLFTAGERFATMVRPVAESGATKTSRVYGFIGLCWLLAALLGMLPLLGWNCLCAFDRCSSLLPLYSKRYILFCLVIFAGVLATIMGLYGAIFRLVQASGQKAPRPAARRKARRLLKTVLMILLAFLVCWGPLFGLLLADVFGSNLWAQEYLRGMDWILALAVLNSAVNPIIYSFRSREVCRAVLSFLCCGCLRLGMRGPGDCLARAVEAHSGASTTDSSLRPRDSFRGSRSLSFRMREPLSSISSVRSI

pIC50, active:
CCc1cccc(CC)c1NC(=O)c1ccc(-c2cc(Cl)ccc2Cl)o1 7.05
COc1cccc(OC)c1NC(=O)c1ccc(-c2cc(Cl)ccc2Cl)o1 6.38
CC(C)c1cccc(C(C)C)c1NC(=O)c1ccc(-c2cc(Cl)ccc2Cl)o1 6.98
Cc1ccc2ccccc2c1NC(=O)c1ccc(-c2cc(Cl)ccc2Cl)o1 6.60
Cc1ccc(C)c(NC(=O)c2ccc(-c3cc(Cl)ccc3Cl)o2)c1 6.78
Cc1cccc(C)c1NC(=O)c1ccc(-c2cc(F)ccc2F)o1 6.51
COc1cccc(C)c1NC(=O)c1ccc(-c2cc(Cl)ccc2Cl)o1 6.79
Cc1cscc1-c1ccc(C(=O)Nc2c(C)cccc2C)o1 6.54
Cc1cccc(C)c1NC(=O)c1ccc(-c2cccc(Cl)c2)o1 6.30
Cc1ccc(S(C)(=O)=O)c(C)c1NC(=O)c1ccc(-c2cc(Cl)ccc2Cl)o1 6.52
Cc1cccc(Cl)c1NC(=O)c1ccc(-c2cc(Cl)ccc2Cl)o1 6.77
